Assays:
[1] = tested on: S. aureus; experiment: Overlay assay, Log10 reduction (Kill) of S. aureus; assay type: cell-based, Staphylococcus aureus
Text: (§1) Staphylococcus hominis (S. hominis, ATCC 27844), Cutibacterium acnes (C. acnes, ATCC6919), Staphylococcus aureus (S. aureus, ATCC 6538), and Malassezia restricta (M. restricta, ATCC 7877) were inoculated from freezer stock onto agar plates according to culture conditions as shown in table 1. Then, one loop of microbes from agar plate was inoculated into a liquid culture system according to the culture condition as shown in table 1. M. restricta were reinoculated on MLNA plate twice before use. Cell density of bacteria (S. hominis, C. acnes and S. aureus) was adjusted to concentration at 10^8 cfu/mL for further use based on absorption at 600 nm. Cell density of M. restricta was adjusted to concentration at 10^8 cfu/mL for further use based on absorption at 610 nm.
(§2) On Day 0, 15 mL of TSA containing (1) 2% Trehalose and 10^6 cfu/ml S. hominis, (2) 10^6 cfu/ml S. hominis alone (without trehalose), and (3) 2% trehalose alone (without S. hominis) was solidified in a […] petri dish and cultured at 37° C. for four days. TSA agar without S. hominis nor trehalose was prepared in parallel as control. […]
(§3) At the end, Log10 reduction (Kill) were determined for the targeted microorganisms, M. restricta and S. aureus on plate (1), (2), and (3) as compared to the respective M. restricta or S. aureus growth on control plate

[2] = tested on: M. restricta; experiment: Overlay assay, Log10 reduction (Kill) of M. restricta; assay type: cell-based, Malassezia restricta
Text: as §1, §2, §3

OC[C@H]1O[C@H](O[C@H]2O[C@H](CO)[C@@H](O)[C@H](O)[C@H]2O)[C@H](O)[C@@H](O)[C@@H]1O [C, trehalose]
Log10 reduction (Kill) of S. aureus ([1]; TSA plate cultured at 37° C. for four days, TSA overlay, serially diluted S. aureus (ATCC 6538) dotted on, compared to growth on control plate): 1

OC[C@H]1O[C@H](O[C@H]2O[C@H](CO)[C@@H](O)[C@H](O)[C@H]2O)[C@H](O)[C@@H](O)[C@@H]1O [A, trehalose]
Log10 reduction (Kill) of M. restricta ([2]; TSA plate cultured at 37° C. for four days, MLNA overlay, serially diluted M. restricta (ATCC 7877) dotted on, compared to growth on control plate): 0

OC[C@H]1O[C@H](O[C@H]2O[C@H](CO)[C@@H](O)[C@H](O)[C@H]2O)[C@H](O)[C@@H](O)[C@@H]1O [Trehalose]
effectiveness against Malassezia restricta ([2]; in the presence of S. hominis, conclusion from Table 3): effective
effectiveness against Staphylococcus aureus ([1]; in the presence of S. hominis, conclusion from Table 4): effective
